{"source": "PubChem BioAssay AID190", "about": "(DTP/NCI, 2004)", "system": "AKR/Lw mice, AKR lymphoma ip, median survival T/C", "test": "NCI In Vivo Anticancer Drug Screen. Data for tumor model Lymphoma AKR (Transplanted) (intraperitoneal) in AKR/Lw mice", "conditions": "endpoint: median survival time, higher = longer survival", "description": "The antitumor activity of compounds was measured in mice bearing transplantable tumors. Survival or tumor size were measured and the results are expressed as the measurement made in the treated group (T) divided by the measurement made in the vehicle treated control group (C). The tumor model used in this assay is Lymphoma AKR (Transplanted) (intraperitoneal) in AKR/Lw mice", "note": "“And” between values parts separate entries of the source, which are not always exact repeats. Equal entries are not always repeated. Toxic doses and inconclusive results are not listed."}
{"compound": "O=NN(CCCl)C(=O)NCCCl", "values": [{"measurement": "T/C", "setting": "dose: 0.12 mg/kg/injection, schedule: Q01DX009 (ip), vehicle: saline", "value": "105 % of control"}, {"measurement": "T/C", "setting": "dose: 0.25 mg/kg/injection, schedule: Q01DX009 (ip), vehicle: saline", "value": "87 % of control and 107 % of control"}, {"measurement": "T/C", "setting": "dose: 0.25 mg/kg/injection, schedule: Q04DX003 (ip), vehicle: saline", "value": "90 % of control and 97 % of control"}, {"measurement": "T/C", "setting": "dose: 0.5 mg/kg/injection, schedule: Q04DX004 (ip), vehicle: saline", "value": "96 % of control"}, {"measurement": "T/C", "setting": "dose: 1.0 mg/kg/injection, schedule: Q04DX004 (ip), vehicle: saline", "value": "108 % of control and 112 % of control"}, {"measurement": "T/C", "setting": "dose: 1.5 mg/kg/injection, schedule: Q04DX003 (ip), vehicle: saline", "value": "107 % of control"}, {"measurement": "T/C", "setting": "dose: 1.5 mg/kg/injection, schedule: Q07DX003 (ip), vehicle: saline", "value": "87 % of control and 118 % of control"}, {"measurement": "T/C", "setting": "dose: 2.5 mg/kg/injection, schedule: Q04DX003 (ip), vehicle: saline", "value": "93 % of control"}, {"measurement": "T/C", "setting": "dose: 3.0 mg/kg/injection, schedule: Q01DX001 (ip), vehicle: saline", "value": "100 % of control and 114 % of control"}, {"measurement": "T/C", "setting": "dose: 3.0 mg/kg/injection, schedule: Q01DX009 (ip), vehicle: saline", "value": "87 % of control"}, {"measurement": "T/C", "setting": "dose: 3.0 mg/kg/injection, schedule: Q04DX003 (ip), vehicle: saline", "value": "86 % of control"}, {"measurement": "T/C", "setting": "dose: 3.0 mg/kg/injection, schedule: Q07DX003 (ip), vehicle: saline", "value": "109 % of control and 121 % of control"}, {"measurement": "T/C", "setting": "dose: 3.13 mg/kg/injection, schedule: Q04DX003 (ip), vehicle: water", "value": "98 % of control"}, {"measurement": "T/C", "setting": "dose: 3.75 mg/kg/injection, schedule: Q01DX001 (ip), vehicle: saline", "value": "117 % of control"}, {"measurement": "T/C", "setting": "dose: 4.0 mg/kg/injection, schedule: Q04DX004 (ip), vehicle: saline", "value": "153 % of control"}, {"measurement": "T/C", "setting": "dose: 5.0 mg/kg/injection, schedule: Q01DX001 (ip), vehicle: saline", "value": "93 % of control and 100 % of control and 103 % of control"}, {"measurement": "T/C", "setting": "dose: 5.0 mg/kg/injection, schedule: Q01DX009 (ip), vehicle: saline", "value": "333 % of control"}, {"measurement": "T/C", "setting": "dose: 5.0 mg/kg/injection, schedule: Q04DX003 (ip), vehicle: saline", "value": "103 % of control"}, {"measurement": "T/C", "setting": "dose: 5.0 mg/kg/injection, schedule: Q10DX004 (ip), vehicle: saline", "value": "103 % of control"}, {"measurement": "T/C", "setting": "dose: 6.0 mg/kg/injection, schedule: Q04DX003 (ip), vehicle: saline", "value": "97 % of control"}, {"measurement": "T/C", "setting": "dose: 6.0 mg/kg/injection, schedule: Q07DX003 (ip), vehicle: saline", "value": "100 % of control and 118 % of control"}, {"measurement": "T/C", "setting": "dose: 6.2 mg/kg/injection, schedule: Q01DX001 (ip), vehicle: saline", "value": "106 % of control"}, {"measurement": "T/C", "setting": "dose: 6.25 mg/kg/injection, schedule: Q04DX003 (ip), vehicle: water", "value": "124 % of control"}, {"measurement": "T/C", "setting": "dose: 7.5 mg/kg/injection, schedule: Q01DX001 (ip), vehicle: saline", "value": "118 % of control"}, {"measurement": "T/C", "setting": "dose: 8.0 mg/kg/injection, schedule: Q04DX004 (ip), vehicle: saline", "value": "171 % of control"}, {"measurement": "T/C", "setting": "dose: 10.0 mg/kg/injection, schedule: Q01DX009 (ip), vehicle: saline", "value": "97 % of control"}, {"measurement": "T/C", "setting": "dose: 10.0 mg/kg/injection, schedule: Q04DX003 (ip), vehicle: saline", "value": "106 % of control"}, {"measurement": "T/C", "setting": "dose: 10.0 mg/kg/injection, schedule: Q10DX004 (ip), vehicle: saline", "value": "111 % of control"}, {"measurement": "T/C", "setting": "dose: 10.0 mg/kg/injection, schedule: Q14DX003 (ip), vehicle: saline", "value": "123 % of control"}, {"measurement": "T/C", "setting": "dose: 12.5 mg/kg/injection, schedule: Q01DX001 (ip), vehicle: saline", "value": "118 % of control"}, {"measurement": "T/C", "setting": "dose: 12.5 mg/kg/injection, schedule: Q04DX003 (ip), vehicle: water", "value": "88 % of control"}, {"measurement": "T/C", "setting": "dose: 15.0 mg/kg/injection, schedule: Q10DX004 (ip), vehicle: saline", "value": "113 % of control"}, {"measurement": "T/C", "setting": "dose: 15.0 mg/kg/injection, schedule: Q14DX003 (ip), vehicle: saline", "value": "98 % of control"}, {"measurement": "T/C", "setting": "dose: 16.0 mg/kg/injection, schedule: Q01DX009 (ip), vehicle: saline", "value": "97 % of control"}, {"measurement": "T/C", "setting": "dose: 16.0 mg/kg/injection, schedule: Q04DX004 (ip), vehicle: saline", "value": "168 % of control"}, {"measurement": "T/C", "setting": "dose: 20.0 mg/kg/injection, schedule: Q01DX009 (ip), vehicle: saline", "value": "97 % of control"}, {"measurement": "T/C", "setting": "dose: 20.0 mg/kg/injection, schedule: Q10DX004 (ip), vehicle: saline", "value": "101 % of control"}, {"measurement": "T/C", "setting": "dose: 20.0 mg/kg/injection, schedule: Q14DX003 (ip), vehicle: saline", "value": "115 % of control"}, {"measurement": "T/C", "setting": "dose: 24.0 mg/kg/injection, schedule: Q01DX001 (ip), vehicle: saline", "value": "86 % of control"}, {"measurement": "T/C", "setting": "dose: 25.0 mg/kg/injection, schedule: Q04DX003 (ip), vehicle: water", "value": "108 % of control"}, {"measurement": "T/C", "setting": "dose: 32.0 mg/kg/injection, schedule: Q04DX004 (ip), vehicle: saline", "value": "103 % of control"}, {"measurement": "T/C", "setting": "dose: 45.0 mg/kg/injection, schedule: Q01DX001 (ip), vehicle: saline", "value": "54 % of control and 95 % of control"}, {"measurement": "T/C", "setting": "dose: 60.0 mg/kg/injection, schedule: Q01DX001 (ip), vehicle: saline", "value": "23 % of control and 86 % of control"}]}
